Measured values: PMC6225212, “Synthesis and Pharmacological Evaluation of Novel Silodosin-Based Arylsulfonamide Derivatives as α1A/α1D-Adrenergic Receptor Antagonist with Potential Uroselective Profile” (Molecules : A Journal of Synthetic Chemistry and Natural …, 2018)
Where two headings read alike, the source gives them in different places.

What was measured:
α1-ARs [1] = test: Radioligand binding, displacement of [3H]-Prazosin from α1-ARs on rat cerebral cortex; conditions: for Sα2/α1 (ratio of affinity for α2- and α1-ARs): Ki α2 / Ki α1; for Ki: [3H]-Prazosin, rat cerebral cortex, ± SEM, two independent experiments
Procedure: (§1) The pharmacological profile of the new compounds was assessed in radioligand-binding assays as the ability to displace [^3H]-Prazosin or [^3H]-Clonidine from α1- and α2-ARs, respectively, on rat cerebral cortex. The inhibition constants (Ki) were calculated from the Cheng-Prusoff equation [24].
(§2) The affinity of the obtained compounds was evaluated by radioligand-binding assays (the ability to displace [^3H]-Prazosin and [^3H]-Clonidine from α1- and α2-ARs, respectively) on rat cerebral cortex. The brains are homogenized in 20 volumes of an ice-cold 50 mM Tris-HCl buffer (pH 7.6) and is centrifuged (MPW Med. Instruments, Warsaw, Poland) at 20,000 g for 20 min (0–4 °C). The cell pellet is resuspended in the Tris-HCl buffer and centrifuged again. Radioligand-binding assays are performed in plates (MultiScreen/Millipore, Burlington, MA, USA). The final incubation mixture (final volume 300 µL) consisted of 240 µL of the membrane suspension, 30 µL of [^3H]-Prazosin (0.2 nM) or [^3H]-Clonidine (2 nM) solution, and 30 µL of the buffer containing seven to eight concentrations (10^−11 to 10^−4 M) of the tested compounds. For measuring the unspecific binding, phentolamine, 10 µM (in the case of [^3H]-Prazosin) and clonidine, and 10 µM (in the case of [^3H]-Clonidine), were applied. The incubation was terminated by rapid filtration over glass fiber filters (Whatman GF/C, Sigma-Aldrich) using a vacuum manifold (Millipore). The filters were then washed twice with the assay buffer and placed in scintillation vials with a liquid-scintillation cocktail. Radioactivity was measured in a WALLAC 1409 DSA liquid-scintillation counter (BioSurplus, San Diego, CA, USA). All the assays were made in duplicate.

α2-ARs [2] = test: Radioligand binding, displacement of [3H]-Clonidine from α2-ARs on rat cerebral cortex; conditions: ± SEM, two independent experiments
Procedure: as §1, §2

α1A-ARs = target: T1, α1A-ARs (Homo sapiens, UniProt P35348); test: Intrinsic activity at α1A-ARs, β-lactamase reporter gene, FRET substrate; type: cell-based; set-up: key to α1A Profile: ANT—antagonist; AGO—agonist; conditions: for IC50: antagonist mode, three independent experiments; for α1A Profile: functional profile
T1 sequence (P35348 1-466): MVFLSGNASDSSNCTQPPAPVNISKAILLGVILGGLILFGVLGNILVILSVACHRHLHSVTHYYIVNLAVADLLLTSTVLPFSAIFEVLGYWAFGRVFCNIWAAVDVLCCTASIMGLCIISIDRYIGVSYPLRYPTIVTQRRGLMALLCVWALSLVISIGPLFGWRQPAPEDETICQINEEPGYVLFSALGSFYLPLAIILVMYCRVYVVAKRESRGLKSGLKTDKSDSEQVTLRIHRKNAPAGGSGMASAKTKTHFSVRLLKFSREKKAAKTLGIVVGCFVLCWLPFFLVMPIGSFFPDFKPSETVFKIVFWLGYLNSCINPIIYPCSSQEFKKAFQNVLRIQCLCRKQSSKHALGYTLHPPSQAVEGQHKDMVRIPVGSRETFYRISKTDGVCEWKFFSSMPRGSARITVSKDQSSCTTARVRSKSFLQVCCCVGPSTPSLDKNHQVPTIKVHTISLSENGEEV
Procedure: The intrinsic activity at α1A-ARs of the selected compounds was assessed by fluorescence detection (Invitrogen, Thermo Fisher Scientific, Carlsbad, CA, USA) of β-lactamase reporter genes using a FRET-enabled substrate. […] Intrinsic activity assay was performed according to the manufacturer of the assay kit (Invitrogen, Thermo Fisher Scientific corporation, Carlsbad, CA, USA). The cells were harvested and suspended in Assay Medium to a density of 312,500 cells/mL. Of the cell suspension, 32 µL per well was added to the Test Compound wells, the Unstimulated Control wells, and Stimulated Control wells and incubated per 16–24 h. […] Then, both the agonist and the antagonist plate were incubated in a humidified 37 °C/5% CO2 incubator for 5 h. After the incubation 8 µL of LiveBLAzer™-FRET B/G Substrate Mixture (CCF4-AM, Thermo Fisher Scientific corporation) was loaded cells in the absence of direct strong lighting, covered, and incubated at room temperature for 2 h.

α1B-ARs = target: T2, α1B-ARs (Homo sapiens, UniProt P35368); test: Intrinsic activity at α1B-ARs, aequorin calcium mobilization luminescence; type: cell-based; set-up: key to α1B Profile: ANT—antagonist; AGO—agonist; conditions: for IC50: antagonist mode, three independent experiments; for α1B Profile: functional profile
T2 sequence (P35368 1-520): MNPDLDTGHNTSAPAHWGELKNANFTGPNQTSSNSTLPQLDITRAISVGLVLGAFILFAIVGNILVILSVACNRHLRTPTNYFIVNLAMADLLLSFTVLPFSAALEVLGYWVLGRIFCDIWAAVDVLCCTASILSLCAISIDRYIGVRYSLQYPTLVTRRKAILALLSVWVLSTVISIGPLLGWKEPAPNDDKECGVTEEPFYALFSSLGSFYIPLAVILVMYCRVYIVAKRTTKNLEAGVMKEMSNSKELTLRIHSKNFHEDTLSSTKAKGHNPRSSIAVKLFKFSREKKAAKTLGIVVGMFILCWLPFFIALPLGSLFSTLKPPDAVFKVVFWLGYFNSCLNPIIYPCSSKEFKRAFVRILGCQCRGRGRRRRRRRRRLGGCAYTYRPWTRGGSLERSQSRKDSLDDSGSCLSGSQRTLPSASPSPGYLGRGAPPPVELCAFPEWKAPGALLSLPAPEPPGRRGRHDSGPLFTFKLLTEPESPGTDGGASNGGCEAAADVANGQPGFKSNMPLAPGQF
Procedure: (§3) The intrinsic activity at α1A-ARs of the selected compounds was assessed by fluorescence detection (Invitrogen, Thermo Fisher Scientific, Carlsbad, CA, USA) of β-lactamase reporter genes using a FRET-enabled substrate. The intrinsic activity at α1B-ARs and α1D-ARs was determined by luminescence detection (PerkinElmer, Zaventem, Belgium) of calcium mobilization using the recombinant-expressed jellyfish photoprotein (Aequorin).
(§4) Intrinsic activity assay to α1B- and α1D-ARs was performed according to the manufacturer of the ready-to-use cells with stable expression of the α1B-adrenoreceptors and α1D-adrenoreceptors, respectively (PerkinElmer, Zaventem, Belgium). For measurement, cells (frozen, ready to use) were thawed and resuspended in 10 mL of assay buffer containing 5 µM coelenterazine h. This cells suspension was put in a 10 mL Falcon tube, fixed onto a rotating heel, and incubated for overnight at rt in the dark (8 rpm; 45° angle). Cells were diluted with Assay Buffer to 5000 cells/20 µL. Agonistic ligands 2 × (50 µL/well), diluted in Assay Buffer, were prepared in ½ white polystyrene area plates, and the cell suspension was dispensed in 50 µL volume on the ligands using the injector. The light emitted was recorded for 20 s. Cells with antagonist were incubated for 15 min at room temperature. Thereafter, 50 µL of agonist (3 × EC80 final concentration) was injected into the mix of cells and antagonist and the light emitted was recorded for 20 s.

α1D-ARs = target: T3, α1D-ARs (Homo sapiens, UniProt P25100); test: Intrinsic activity at α1D-ARs, aequorin calcium mobilization luminescence; type: cell-based; set-up: key to α1D Profile: ANT—antagonist; AGO—agonist; conditions: for IC50: antagonist mode; for α1D Profile: functional profile
T3 sequence (P25100 1-572): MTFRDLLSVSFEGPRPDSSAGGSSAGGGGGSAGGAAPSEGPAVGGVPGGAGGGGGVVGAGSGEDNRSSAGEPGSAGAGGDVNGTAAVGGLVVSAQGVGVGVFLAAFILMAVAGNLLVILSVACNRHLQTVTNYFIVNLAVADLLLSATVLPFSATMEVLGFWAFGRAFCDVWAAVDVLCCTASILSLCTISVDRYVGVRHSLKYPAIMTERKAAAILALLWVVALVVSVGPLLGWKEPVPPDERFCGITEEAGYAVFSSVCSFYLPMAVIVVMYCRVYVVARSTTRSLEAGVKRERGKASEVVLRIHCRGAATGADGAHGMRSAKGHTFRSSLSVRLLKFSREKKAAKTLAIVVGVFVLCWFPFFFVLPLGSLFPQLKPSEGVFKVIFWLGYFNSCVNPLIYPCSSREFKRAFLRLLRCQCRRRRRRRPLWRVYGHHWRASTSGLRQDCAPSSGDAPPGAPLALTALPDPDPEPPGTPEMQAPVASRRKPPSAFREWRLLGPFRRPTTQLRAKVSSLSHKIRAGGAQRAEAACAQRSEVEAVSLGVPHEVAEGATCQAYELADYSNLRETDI
Procedure: as §3, §4

α1-ARs [3] = tested on: α1-ARs; set-up: method as in PMID 27658792; conditions: cited from earlier work
α2-ARs [4] = target: α2-ARs; set-up: method as in PMID 27658792; conditions: [3H]-Clonidine, rat cerebral cortex; ± SEM; cited from earlier work
[5] = antagonist, as worded in abstract and text, read-out: EC50(α1D)

Compound	Sα2/α1 (ratio of affinity for α2- and α1-ARs) (α1-ARs [1])	Ki (α1-ARs [1]) [nM]	Ki (α2-ARs [2]) [nM]	α1A Profile (α1A-ARs)	α1B Profile (α1B-ARs)	α1D Profile (α1D-ARs)	other results
O=S(=O)(NCC1CCN(CCOc2ccccc2OCC(F)(F)F)CC1)c1ccc(F)cc1 [Compound 8, 4-Fluoro-N-[(1-{2-[(2,2,2-trifluoroethoxy)phenoxy]ethyl}piperidin-4-yl)methyl]benzenesulfonamide]	46	20 ± 2	919 ± 25	ANT	ANT	ANT	IC50 (α1A-ARs): 3.8 nM; IC50 (α1B-ARs): 8.3 nM; IC50 (α1D-ARs; three independent experiments): 1.1 nM; EC50 (α1D-ARs; [5]): 1.1 to 2.7 nM
COc1ccc(Cl)cc1S(=O)(=O)NCC1CCN(CCOc2ccccc2OCC(F)(F)F)CC1 [Compound 11, 5-Chloro-2-methoxy-N-[(1-{2-[(2,2,2-trifluoroethoxy)phenoxy]ethyl}piperidin-4-yl)methyl]benzenesulfonamide]	12	95 ± 3	1090 ± 62				
COc1ccc(S(=O)(=O)NCC2CCN(CCOc3ccccc3OCC(F)(F)F)CC2)cc1OC [Compound 12, 3,4-Dimethoxy-N-[(1-{2-[(2,2,2-trifluoroethoxy)phenoxy]ethyl}piperidin-4-yl)methyl]benzenesulfonamide]	27	19 ± 3	524 ± 31	ANT	ANT	ANT	IC50 (α1A-ARs): 15 nM; IC50 (α1B-ARs): 0.02 nM; IC50 (α1D-ARs; three independent experiments): 2.6 nM; EC50 (α1D-ARs; [5]): 1.1 to 2.7 nM
O=S(=O)(N[C@@H]1CCN(CCOc2ccccc2OCC(F)(F)F)C1)c1ccc(F)cc1 [Compound 13, (R)-4-Fluoro-N-(1-{2-[(2,2,2-trifluoroethoxy)phenoxy]ethyl}pyrrolidin-3-yl)benzenesulfonamide]	9	188 ± 3	1690 ± 85				
O=S(=O)(N[C@H]1CCN(CCOc2ccccc2OCC(F)(F)F)C1)c1ccc(F)cc1 [Compound 14, (S)-4-Fluoro-N-(1-{2-[(2,2,2-trifluoroethoxy)phenoxy]ethyl}pyrrolidin-3-yl)benzenesulfonamide]	>70	134 ± 16	> 10000				
O=S(=O)(N[C@@H]1CCN(CCOc2ccccc2OCC(F)(F)F)C1)c1cc(Cl)ccc1F [Compound 15, (R)-5-Chloro-2-fluoro-N-(1-{2-[(2,2,2-trifluoroethoxy)phenoxy]ethyl}pyrrolidin-3-yl)benzenesulfonamide]	7	171 ± 4	1190 ± 74				
O=S(=O)(N[C@H]1CCN(CCOc2ccccc2OCC(F)(F)F)C1)c1cc(Cl)ccc1F [Compound 16, (S)-5-Chloro-2-fluoro-N-(1-{2-[(2,2,2-trifluoroethoxy)phenoxy]ethyl}pyrrolidin-3-yl)benzenesulfonamide]	13	117 ± 10	1470 ± 80				
COc1ccc(S(=O)(=O)N[C@@H]2CCN(CCOc3ccccc3OCC(F)(F)F)C2)cc1OC [Compound 17, (R)-3,4-Dimethoxy-N-(1-{2-[(2,2,2-trifluoroethoxy)phenoxy]ethyl}pyrrolidin-3-yl)benzenesulfonamide]	4	105 ± 7	435 ± 21				
COc1ccc(S(=O)(=O)N[C@H]2CCN(CCOc3ccccc3OCC(F)(F)F)C2)cc1OC [Compound 18, (S)-3,4-Dimethoxy-N-(1-{2-[(2,2,2-trifluoroethoxy)phenoxy]ethyl}pyrrolidin-3-yl)benzenesulfonamide]	16	70 ± 1	1140 ± 42				
CC(C)Oc1ccccc1OCCN1CC[C@H](NS(=O)(=O)c2cc(Cl)ccc2F)C1 [II]							Sα2/α1 (ratio of affinity for α2- and α1-ARs) (α1-ARs [3]; Ki α2 / Ki α1): >41; Ki (α1-ARs [3]; [3H]-Prazosin, rat cerebral cortex, ± SEM): 242 ± 16 nM; Ki (α2-ARs [4]): > 10000 nM
CNC[C@H](O)c1cccc(O)c1 [phenylephrine, reference compound]				AGO ^b	AGO	AGO	EC50 (α1D-ARs; agonist mode, three independent experiments, read-out: α1D EC50): 12.1 nM
COc1cc2nc(N3CCN(C(=O)C4CCCO4)CC3)nc(N)c2cc1OC (stereo not shown) [terazosin, reference compound]				ANT	ANT	ANT	IC50 (α1D-ARs; three independent experiments): 0.2 nM
